Square brackets hold non-standard residues; d marks the D form. Peptide text beside a SMILES is read from it. ξ: configuration not given here. Aoe(9ξ) = N[C@@H](CCCCCC(=O)C1CO1)C(=O)O; dPip = O=C(O)[C@H]1CCCCN1
Experiments:
BID = settings: T cell leukemia cells; independently of caspase activity; cited from earlier work
histone deacetylase 1 = histone deacetylase 1 (Homo sapiens, UniProt Q13547); settings: Tauton et al. Science 272:408-411 (1996); cited from earlier work
RhoB promoter [1] = experiment: RhoB promoter deletion/mutation constructs, induction by TPX; assay type: cell-based; settings: following TPX treatment
Procedure: (§1) Furthermore, mutations in this CCAAT box reduced the ability of HDAC1 to confer repression of RhoB promoter activity. In addition, chromatin immunoprecipitation assays reveal that TPX increased the level of chromatin acetylation in the TPX-responsive region of the RhoB promoter containing the inverted CCAAT box. […] The global gene expression profiles of A549 cells following inhibition of HDAC with LAQ824 were determined by DNA microarray analysis.

RhoB promoter [2] = experiment: Chromatin immunoprecipitation assays; assay type: cell-based; settings: region containing the inverted CCAAT box
Procedure: as §1

Sequence of histone deacetylase 1 (Q13547 whole entry, species assumed): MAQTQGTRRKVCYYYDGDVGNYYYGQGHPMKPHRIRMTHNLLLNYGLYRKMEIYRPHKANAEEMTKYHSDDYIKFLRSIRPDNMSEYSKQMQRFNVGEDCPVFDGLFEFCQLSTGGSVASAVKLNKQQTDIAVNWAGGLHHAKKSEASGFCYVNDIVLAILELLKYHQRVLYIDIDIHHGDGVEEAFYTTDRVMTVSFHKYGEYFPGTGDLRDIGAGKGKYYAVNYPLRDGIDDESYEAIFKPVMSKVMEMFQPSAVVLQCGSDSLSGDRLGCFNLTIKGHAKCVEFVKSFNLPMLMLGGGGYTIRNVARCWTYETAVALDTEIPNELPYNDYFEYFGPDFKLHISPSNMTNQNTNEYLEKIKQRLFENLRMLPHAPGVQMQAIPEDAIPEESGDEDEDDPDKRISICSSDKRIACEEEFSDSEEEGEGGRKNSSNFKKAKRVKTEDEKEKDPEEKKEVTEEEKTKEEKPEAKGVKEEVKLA

SMILES | BID cleavage (BID) | inhibition of histone deacetylase 1 (histone deacetylase 1) | induction of expression from RhoB promoter deletion constructs (RhoB promoter [1]) | level of chromatin acetylation in the TPX-responsive region of the RhoB promoter (RhoB promoter [2])
O=C(CCCCCCC(=O)Nc1ccccc1)NO [SAHA] | cleaved |  |  | 
O=C(CCCCC[C@@H]1NC(=O)[C@H]2CCCCN2C(=O)[C@H](Cc2ccccc2)NC(=O)[C@H](Cc2ccccc2)NC1=O)C1CO1 (stereo partly shown) [TPX, trapoxin A] (cyclo(FF[dPip][Aoe(9ξ)])) |  | potently inhibit | induction of expression from all of these deletions is similar | increased

— patent publication US20070082339A1, “Methods and compositions for screening for HDAC inhibitory activity” (priority 2005, published 2007)
